{"source": "paper PMC5218480", "about": "(PLoS ONE, 2017)", "test_system": "MV-4-11 cells", "assay": "Gene expression microarray analysis (Affymetrix PrimeView) and GSEA", "format": "cell-based, human", "design": "RFU PODN (11730768_x_at) / Fold change /veh PODN (11730768_x_at) / RFU LINC00158 (11744669_a_at) / Fold change /veh LINC00158 (11744669_a_at) / RFU DUSP10 (11751237_a_at) / Fold change /veh DUSP10 (11751237_a_at) / RFU ID3 (11757404_x_at) / Fold change /veh ID3 (11757404_x_at) / RFU PLEKHG5 (11737974_s_at) / Fold change /veh PLEKHG5 (11737974_s_at) / RFU LRRC4B (11730491_at) / Fold change /veh LRRC4B (11730491_at) / RFU GIMAP4 (11747438_a_at) / Fold change /veh GIMAP4 (11747438_a_at) / RFU KRT8 (11758183_x_at) / Fold change /veh KRT8 (11758183_x_at) / RFU CNN1 (11734310_a_at) / Fold change /veh CNN1 (11734310_a_at) / RFU VPS37D (11726825_at) / Fold change /veh VPS37D (11726825_at) / RFU C10orf10 (11716522_x_at) / Fold change /veh C10orf10 (11716522_x_at) / RFU KIR2DL2 /// KIR2DL4 /// KIR2DL5A /// KIR2DL5B /// KIR2DS1 /// KIR2DS2 /// KIR2DS3 /// KIR2DS4 /// KIR3DL3 /// KIR3DL3 /// KIR3DS1 (11738374_at) / Fold change /veh KIR2DL2 /// KIR2DL4 /// KIR2DL5A /// KIR2DL5B /// KIR2DS1 /// KIR2DS2 /// KIR2DS3 /// KIR2DS4 /// KIR3DL3 /// KIR3DL3 /// KIR3DS1 (11738374_at) / RFU C1QL1 (11718748_at) / Fold change /veh C1QL1 (11718748_at) / RFU TMPRSS4 (11747572_a_at) / Fold change /veh TMPRSS4 (11747572_a_at) / RFU HAMP (11756126_x_at) / Fold change /veh HAMP (11756126_x_at) / RFU RNFT2 (11725882_a_at) / Fold change /veh RNFT2 (11725882_a_at) / RFU NR4A2 (11747474_a_at) / Fold change /veh NR4A2 (11747474_a_at) / RFU ABCC12 (11746883_a_at) / Fold change /veh ABCC12 (11746883_a_at) / RFU TMEM136 (11760407_x_at) / Fold change /veh TMEM136 (11760407_x_at) / RFU CLDN22 /// WWC2 (11732394_at) / Fold change /veh CLDN22 /// WWC2 (11732394_at) / RFU HLA-DPB1 (11760878_x_at) / Fold change /veh HLA-DPB1 (11760878_x_at) / RFU SPINT1 (11716480_a_at) / Fold change /veh SPINT1 (11716480_a_at) / RFU GAP43 (11754022_s_at) / Fold change /veh GAP43 (11754022_s_at) / RFU A4GNT (11735810_at) / Fold change /veh A4GNT (11735810_at) / RFU PRB3 (11715151_x_at) / Fold change /veh PRB3 (11715151_x_at) / RFU TUBB4B (11761932_at) / Fold change /veh TUBB4B (11761932_at) / RFU CAPN14 (11732068_a_at) / Fold change /veh CAPN14 (11732068_a_at) / RFU TMCC2 (11721928_a_at) / Fold change /veh TMCC2 (11721928_a_at) / RFU IRGQ (11745062_a_at) / Fold change /veh IRGQ (11745062_a_at) / RFU FAM174B (11720279_a_at) / Fold change /veh FAM174B (11720279_a_at) / RFU TMPRSS4 (11748680_a_at) / Fold change /veh TMPRSS4 (11748680_a_at) / RFU FAM212B (11763350_a_at) / Fold change /veh FAM212B (11763350_a_at) / RFU PLEKHG5 (11743358_a_at) / Fold change /veh PLEKHG5 (11743358_a_at) / RFU ZSCAN30 (11745921_a_at) / Fold change /veh ZSCAN30 (11745921_a_at) / RFU CMKLR1 (11741424_a_at) / Fold change /veh CMKLR1 (11741424_a_at) / RFU LOC101060620 /// MAPK8IP1 (11723275_at) / Fold change /veh LOC101060620 /// MAPK8IP1 (11723275_at) / RFU SPTSSB (11747773_x_at) / Fold change /veh SPTSSB (11747773_x_at) / RFU PRSS12 (11739890_at) / Fold change /veh PRSS12 (11739890_at) / RFU BIN1 (11741810_x_at) / Fold change /veh BIN1 (11741810_x_at) / RFU WNT11 (11732464_a_at) / Fold change /veh WNT11 (11732464_a_at) / RFU C10orf10 (11716521_a_at) / Fold change /veh C10orf10 (11716521_a_at) / RFU C5orf56 (11738089_at) / Fold change /veh C5orf56 (11738089_at) / RFU CYB561 (11721691_x_at) / Fold change /veh CYB561 (11721691_x_at) / RFU ANKRD19P (11752326_a_at) / Fold change /veh ANKRD19P (11752326_a_at) / RFU OR2T12 /// OR2T33 /// OR2T8 (11738714_s_at) / Fold change /veh OR2T12 /// OR2T33 /// OR2T8 (11738714_s_at) / RFU VCAN (11748164_a_at) / Fold change /veh VCAN (11748164_a_at) / RFU JSRP1 (11732532_at) / Fold change /veh JSRP1 (11732532_at) / RFU KRTAP10-11 (11738290_x_at) / Fold change /veh KRTAP10-11 (11738290_x_at) / RFU MYO3A (11730013_a_at) / Fold change /veh MYO3A (11730013_a_at) / RFU EBF3 (11725865_a_at) / Fold change /veh EBF3 (11725865_a_at) / RFU CAMK2N1 (11719241_x_at) / Fold change /veh CAMK2N1 (11719241_x_at) / RFU C5orf56 (11738088_a_at) / Fold change /veh C5orf56 (11738088_a_at) / RFU OLFML3 (11715873_a_at) / Fold change /veh OLFML3 (11715873_a_at) / RFU LOC100653217 /// NTM (11731650_a_at) / Fold change /veh LOC100653217 /// NTM (11731650_a_at) / RFU MAPK11 (11762145_a_at) / Fold change /veh MAPK11 (11762145_a_at) / RFU FIZ1 (11724087_x_at) / Fold change /veh FIZ1 (11724087_x_at) / RFU OASL (11726364_x_at) / Fold change /veh OASL (11726364_x_at) / RFU SOX15 (11748057_x_at) / Fold change /veh SOX15 (11748057_x_at) / RFU CD79A (11719716_a_at) / Fold change /veh CD79A (11719716_a_at) / RFU HIST1H1D (11736915_at) / Fold change /veh HIST1H1D (11736915_at) / RFU CASKIN2 (11723855_a_at) / Fold change /veh CASKIN2 (11723855_a_at) / RFU LOC730098 (11760151_x_at) / Fold change /veh LOC730098 (11760151_x_at) / RFU OR4N2 (11742367_at) / Fold change /veh OR4N2 (11742367_at) / RFU PRRT2 (11749266_a_at) / Fold change /veh PRRT2 (11749266_a_at) / RFU SNX32 (11753110_a_at) / Fold change /veh SNX32 (11753110_a_at) / RFU CDHR5 (11726645_a_at) / Fold change /veh CDHR5 (11726645_a_at) / RFU RCAN1 (11760418_a_at) / Fold change /veh RCAN1 (11760418_a_at) / RFU FAM167A (11723789_a_at) / Fold change /veh FAM167A (11723789_a_at) / RFU FAM26E (11764081_at) / Fold change /veh FAM26E (11764081_at) / RFU ISYNA1 (11749810_s_at) / Fold change /veh ISYNA1 (11749810_s_at) / RFU ACY1 (11761880_at) / Fold change /veh ACY1 (11761880_at) / RFU 11764098_at / Fold change /veh 11764098_at / RFU SAMD14 (11745864_x_at) / Fold change /veh SAMD14 (11745864_x_at) / RFU NPB (11741838_a_at) / Fold change /veh NPB (11741838_a_at) / RFU TMPRSS6 (11731388_a_at) / Fold change /veh TMPRSS6 (11731388_a_at) / RFU KRTAP10-2 (11738614_at) / Fold change /veh KRTAP10-2 (11738614_at) / RFU ARHGAP8 /// PRR5-ARHGAP8 (11727945_x_at) / Fold change /veh ARHGAP8 /// PRR5-ARHGAP8 (11727945_x_at) / RFU KRTAP5-7 /// NADSYN1 (11734609_at) / Fold change /veh KRTAP5-7 /// NADSYN1 (11734609_at) / RFU RASL12 (11751679_a_at) / Fold change /veh RASL12 (11751679_a_at) / RFU CDKN2B (11736163_a_at) / Fold change /veh CDKN2B (11736163_a_at) / RFU PRF1 (11729649_at) / Fold change /veh PRF1 (11729649_at) / RFU, ZNF638 /// ZNF638-IT1 / Fold change vs veh, ZNF638 /// ZNF638-IT1 / RFU, PANK3 / Fold change vs veh, PANK3 / RFU, SH3YL1 / Fold change vs veh, SH3YL1 / RFU, ZEB2 / Fold change vs veh, ZEB2 / RFU, NRIP1 / Fold change vs veh, NRIP1 / RFU, PTTG1IP / Fold change vs veh, PTTG1IP / RFU, CAPN2 / Fold change vs veh, CAPN2 / RFU, MED14 / Fold change vs veh, MED14 / RFU, SNORA58 / Fold change vs veh, SNORA58 / RFU, C1orf63 / Fold change vs veh, C1orf63 / RFU, LRRFIP1 / Fold change vs veh, LRRFIP1 / RFU, NDUFAF7 / Fold change vs veh, NDUFAF7 / RFU, SLC12A2 / Fold change vs veh, SLC12A2 / RFU, IBTK / Fold change vs veh, IBTK / RFU, ESF1 / Fold change vs veh, ESF1 / Fold change vs veh, TMEM50B / RFU, TAOK1 / Fold change vs veh, TAOK1 / RFU, ACBD3 / Fold change vs veh, ACBD3 / RFU, TMA16 / Fold change vs veh, TMA16 / RFU, RWDD3 / Fold change vs veh, RWDD3 / RFU, BCAT1 / Fold change vs veh, BCAT1 / RFU, EDEM3 / Fold change vs veh, EDEM3 / RFU, TMEM33 / Fold change vs veh, TMEM33 / RFU, WDR75 / Fold change vs veh, WDR75 / RFU, AHCTF1 / Fold change vs veh, AHCTF1 / RFU, TFRC / Fold change vs veh, TFRC / RFU, ZDHHC17 / Fold change vs veh, ZDHHC17 / RFU, NOM1 / Fold change vs veh, NOM1 / RFU, ARL8B / Fold change vs veh, ARL8B / RFU, ZBTB11 / Fold change vs veh, ZBTB11 / RFU, TAMM41 / Fold change vs veh, TAMM41 / RFU, KIAA1704 /// LOC100996395 / Fold change vs veh, KIAA1704 /// LOC100996395 / RFU, ING1 / Fold change vs veh, ING1 / RFU, TRMT61B / Fold change vs veh, TRMT61B / RFU, FUBP3 / Fold change vs veh, FUBP3 / RFU, TP53 / Fold change vs veh, TP53 / RFU, TNKS2 / Fold change vs veh, TNKS2 / RFU, ZFP14 / Fold change vs veh, ZFP14 / RFU, ACTR2 / Fold change vs veh, ACTR2 / RFU, PPP3R1 / Fold change vs veh, PPP3R1 / RFU, PIK3R1 / Fold change vs veh, PIK3R1 / RFU, HNRNPA1 / Fold change vs veh, HNRNPA1 / RFU, RNF170 / Fold change vs veh, RNF170 / RFU, ZNF28 / Fold change vs veh, ZNF28 / RFU, RNGTT / Fold change vs veh, RNGTT / RFU, OGT / Fold change vs veh, OGT / RFU, BRD1 / Fold change vs veh, BRD1 / RFU, MARS / Fold change vs veh, MARS / RFU, ZNF655 / Fold change vs veh, ZNF655 / RFU, FAHD1 / Fold change vs veh, FAHD1 / RFU, BDP1 / Fold change vs veh, BDP1 / RFU, LRRCC1 / Fold change vs veh, LRRCC1 / RFU, ARID1A / Fold change vs veh, ARID1A / RFU, ZNF146 / Fold change vs veh, ZNF146 / RFU, ZNF330 / Fold change vs veh, ZNF330 / RFU, GPN3 / Fold change vs veh, GPN3 / RFU, C9orf123 / Fold change vs veh, C9orf123 / RFU, N4BP2L2 / Fold change vs veh, N4BP2L2 / RFU, ARFIP1 / Fold change vs veh, ARFIP1 / RFU, FAM179B / Fold change vs veh, FAM179B / RFU, BCL10 / Fold change vs veh, BCL10 / RFU, UHRF1BP1L / Fold change vs veh, UHRF1BP1L / RFU, BET1 / Fold change vs veh, BET1 / RFU, CNOT2 / Fold change vs veh, CNOT2 / RFU, ZNF268 / Fold change vs veh, ZNF268 / Fold change vs veh, ZNF507 / RFU, DGCR2 / Fold change vs veh, DGCR2 / RFU, WDSUB1 / Fold change vs veh, WDSUB1 / Fold change vs veh, HSP90B1 /// MIR3652 / RFU, ADSS / Fold change vs veh, ADSS / RFU, GK / Fold change vs veh, GK / RFU, ZNF148 / Fold change vs veh, ZNF148 / RFU, TAF9 / Fold change vs veh, TAF9 / RFU, SLC1A5 / Fold change vs veh, SLC1A5 / RFU, SLMO2 / Fold change vs veh, SLMO2 / RFU, ABCC4 / Fold change vs veh, ABCC4 / RFU, LOC101060439 /// RAP1B / Fold change vs veh, LOC101060439 /// RAP1B / RFU, RFX7 / Fold change vs veh, RFX7 / RFU, GTPBP10 / Fold change vs veh, GTPBP10 / RFU, CNEP1R1 / Fold change vs veh, CNEP1R1 / RFU, BIVM-ERCC5 /// ERCC5 / Fold change vs veh, BIVM-ERCC5 /// ERCC5 / RFU, ILF3 / Fold change vs veh, ILF3 / RFU 11762660_at / Fold change /veh 11762660_at / RFU VCAN (11757783_s_at) / Fold change /veh VCAN (11757783_s_at) / RFU DDX43 (11728927_at) / Fold change /veh DDX43 (11728927_at) / RFU KRT8 (11758188_x_at) / Fold change /veh KRT8 (11758188_x_at) / RFU NKD1 (11759106_at) / Fold change /veh NKD1 (11759106_at) / RFU SRD5A1 (11742802_a_at) / Fold change /veh SRD5A1 (11742802_a_at) / RFU TPSAB1 /// TPSB2 (11721975_s_at) / Fold change /veh TPSAB1 /// TPSB2 (11721975_s_at) / RFU GSTM3 (11746129_a_at) / Fold change /veh GSTM3 (11746129_a_at) / RFU IL23R (11737362_x_at) / Fold change /veh IL23R (11737362_x_at) / RFU TMEM51 (11727254_a_at) / Fold change /veh TMEM51 (11727254_a_at) / RFU PIWIL2 (11732686_x_at) / Fold change /veh PIWIL2 (11732686_x_at) / RFU ORM1 (11744905_x_at) / Fold change /veh ORM1 (11744905_x_at) / RFU CCDC152 (11743942_at) / Fold change /veh CCDC152 (11743942_at) / RFU ECM1 (11717891_a_at) / Fold change /veh ECM1 (11717891_a_at) / RFU IL23R (11748794_a_at) / Fold change /veh IL23R (11748794_a_at) / RFU TNFAIP8L3 (11732012_x_at) / Fold change /veh TNFAIP8L3 (11732012_x_at) / RFU MBOAT4 (11741988_at) / Fold change /veh MBOAT4 (11741988_at) / RFU 11764193_at / Fold change /veh 11764193_at / RFU TMEM53 (11763286_at) / Fold change /veh TMEM53 (11763286_at) / RFU MAGEB2 (11727129_at) / Fold change /veh MAGEB2 (11727129_at) / RFU TMEM200A (11744735_a_at) / Fold change /veh TMEM200A (11744735_a_at) / RFU CCDC152 (11751479_a_at) / Fold change /veh CCDC152 (11751479_a_at) / RFU FAM211A (11726209_a_at) / Fold change /veh FAM211A (11726209_a_at) / RFU RGS16 (11746705_a_at) / Fold change /veh RGS16 (11746705_a_at) / RFU VCAN (11755009_s_at) / Fold change /veh VCAN (11755009_s_at) / RFU RHOB (11743442_s_at) / Fold change /veh RHOB (11743442_s_at) / RFU RGS16 (11720943_a_at) / Fold change /veh RGS16 (11720943_a_at) / RFU RGS16 (11720944_at) / Fold change /veh RGS16 (11720944_at) / RFU, VPS4B / Fold change vs veh, VPS4B / RFU, CREB1 / Fold change vs veh, CREB1 / RFU, DNAJC13 / Fold change vs veh, DNAJC13 / RFU, GNAQ / Fold change vs veh, GNAQ / RFU, CDK5R1 / Fold change vs veh, CDK5R1 / RFU, ZRANB3 / Fold change vs veh, ZRANB3 / RFU, CUL4A / Fold change vs veh, CUL4A / RFU, CCNY / Fold change vs veh, CCNY / RFU, UFL1 / Fold change vs veh, UFL1 / RFU, COG3 / Fold change vs veh, COG3 / RFU, DIAPH2 / Fold change vs veh, DIAPH2 / RFU, SKA2 / Fold change vs veh, SKA2 / RFU, AFF3 / Fold change vs veh, AFF3 / RFU, LMF1 / Fold change vs veh, LMF1 / RFU, IPO11 / Fold change vs veh, IPO11 / RFU, DFFB / Fold change vs veh, DFFB / RFU, FOXP1 / Fold change vs veh, FOXP1 / RFU, CARD8 / Fold change vs veh, CARD8 / RFU, STRN3 / Fold change vs veh, STRN3 / RFU, ADK / Fold change vs veh, ADK / RFU, RASSF2 / Fold change vs veh, RASSF2 / RFU, WIPF1 / Fold change vs veh, WIPF1 / RFU, LARP1B / Fold change vs veh, LARP1B / RFU, RASA1 / Fold change vs veh, RASA1 / RFU, RB1 / Fold change vs veh, RB1 / RFU, PPFIA1 / Fold change vs veh, PPFIA1 / RFU, MAT2A / Fold change vs veh, MAT2A / RFU, CCT5 / Fold change vs veh, CCT5 / RFU, WDR92 / Fold change vs veh, WDR92 / RFU, CUX1 / Fold change vs veh, CUX1 / RFU, TTC7A / Fold change vs veh, TTC7A / RFU, TMEM135 / Fold change vs veh, TMEM135 / RFU, DEPTOR / Fold change vs veh, DEPTOR / RFU, CPM / Fold change vs veh, CPM / RFU, DNAJB6 / Fold change vs veh, DNAJB6 / RFU, CACNA2D3 / Fold change vs veh, CACNA2D3 / RFU, DTX4 / Fold change vs veh, DTX4 / RFU, TFCP2 / Fold change vs veh, TFCP2 / RFU, GMCL1 /// GMCL1P1 / Fold change vs veh, GMCL1 /// GMCL1P1 / RFU, AEBP2 / Fold change vs veh, AEBP2 / RFU, SNHG1 /// SNORD22 /// SNORD25 /// SNORD26 /// SNORD27 /// SNORD28 /// SNORD29 /// SNORD31 / Fold change vs veh, SNHG1 /// SNORD22 /// SNORD25 /// SNORD26 /// SNORD27 /// SNORD28 /// SNORD29 /// SNORD31 / Fold change (Aza/veh), C12orf56 (ProbeSet 11735607_a_at) / Fold change (ACY-1035/veh), C12orf56 (ProbeSet 11735607_a_at) / Fold change (Aza/veh), FGFR1OP (ProbeSet 11751329_s_at) / Fold change (ACY-1035/veh), FGFR1OP (ProbeSet 11751329_s_at) / Fold change (Aza/veh), VPS36 (ProbeSet 11739960_a_at) / Fold change (ACY-1035/veh), VPS36 (ProbeSet 11739960_a_at) / RFU SYPL1 (11715823_x_at) / Fold change /veh SYPL1 (11715823_x_at) / RFU IGFBP7 (11715501_s_at) / Fold change /veh IGFBP7 (11715501_s_at) / RFU REEP3 (11722064_at) / Fold change /veh REEP3 (11722064_at) / RFU IGLL1 (11728026_x_at) / Fold change /veh IGLL1 (11728026_x_at): dose or concentration left out as unconfirmed", "conditions": "ProbeSet 11732306_x_at; LIST D", "data": [{"smiles": "Nc1ccc(-c2cccs2)cc1NC(=O)c1ccc2c(c1)cc(C1CC1)n2CCN1CCOCC1", "note": "[ACY-1035]", "values": [{"measurement": "RFU, CREB1", "value": 287.35, "unit": "RFU"}]}]}
